Measurements from ChEMBL document CHEMBL1155346, “Synthesis, photochemical E (trans)-->Z (cis) isomerization and antimicrobial activity of 2-chloro-5-methylpyridine-3-olefin derivatives” (2009).
≈ marks a conversion by molar mass, not a printed value.

Columns and labels:
Format in all cases: functional
Escherichia coli = assay: Antibacterial activity against Escherichia coli by broth dilution method
Staphylococcus aureus = assay: Antibacterial activity against Staphylococcus aureus MTCC 11 by broth dilution method
Pseudomonas aeruginosa = assay: Antibacterial activity against Pseudomonas aeruginosa MTCC 741 by broth dilution method
Candida albicans [1] = assay: Antifungal activity against Candida albicans at 100 ug; settings: read-out: DIZ
Rhizopus arrhizus [2] = assay: Antifungal activity against Rhizopus oryzae at 150 ug; settings: read-out: DIZ
Rhizopus arrhizus [3] = assay: Antifungal activity against Rhizopus oryzae at 100 ug; settings: read-out: DIZ
Aspergillus niger [4] = assay: Antifungal activity against Aspergillus niger at 100 ug; settings: read-out: DIZ
Candida albicans [5] = assay: Antifungal activity against Candida albicans at 150 ug; settings: read-out: DIZ
Aspergillus niger [6] = assay: Antifungal activity against Aspergillus niger at 150 ug; settings: read-out: DIZ
Bacillus subtilis = assay: Antibacterial activity against Bacillus subtilis MTCC 441 by broth dilution method
Saccharomyces cerevisiae [7] = assay: Antifungal activity against Saccharomyces cerevisiae at 150 ug; settings: read-out: DIZ
Saccharomyces cerevisiae [8] = assay: Antifungal activity against Saccharomyces cerevisiae at 100 ug; settings: read-out: DIZ

SMILES | MIC (Escherichia coli) [µg/mL] | MIC (Staphylococcus aureus) [µg/mL] | MIC (Pseudomonas aeruginosa) [µg/mL] | zone of inhibition at 100 µg/disc (Candida albicans [1]) [mm] | zone of inhibition at 150 µg/disc (Rhizopus arrhizus [2]) [mm] | zone of inhibition at 100 µg/disc (Rhizopus arrhizus [3]) [mm] | zone of inhibition at 100 µg/disc (Aspergillus niger [4]) [mm] | zone of inhibition at 150 µg/disc (Candida albicans [5]) [mm] | zone of inhibition at 150 µg/disc (Aspergillus niger [6]) [mm] | MIC (Bacillus subtilis) [µg/mL] | zone of inhibition at 150 µg/disc (Saccharomyces cerevisiae [7]) [mm] | zone of inhibition at 100 µg/disc (Saccharomyces cerevisiae [8]) [mm]
COC(=O)/C=C/c1cc(C)cnc1Cl | 37.5 (≈ 177 µM) | 75 (≈ 354 µM) | 75 (≈ 354 µM) | 8 | 11 | 10 | 16 | 11 | 17 | 37.5 (≈ 177 µM) | – | –
Cc1cnc(Cl)c(/C=C\C#N)c1 | 37.5 (≈ 210 µM) | 75 (≈ 420 µM) | 75 (≈ 420 µM) | – | 10 | 9 | 9 | 10 | 12 | 37.5 (≈ 210 µM) | – | –
Cc1cnc(Cl)c(/C=C/CO)c1 | 37.5 (≈ 204 µM) | 75 (≈ 408 µM) | 37.5 (≈ 204 µM) | 13 | 18 | 16 | 14 | 15 | 17 | 37.5 (≈ 204 µM) | 14 | 12
Cc1cnc(Cl)c(/C=C\CO)c1 | 75 (≈ 408 µM) | 37.5 (≈ 204 µM) | 75 (≈ 408 µM) | 11 | 17 | 14 | 12 | 14 | 16 | 37.5 (≈ 204 µM) | 13 | 11
Cc1cnc(Cl)c(/C=C/C#N)c1 | 75 (≈ 420 µM) | 75 (≈ 420 µM) | 75 (≈ 420 µM) | 10 | 12 | 10 | 13 | 12 | 15 | 75 (≈ 420 µM) | – | –
CC(=O)/C=C/c1cc(C)cnc1Cl | 75 (≈ 383 µM) | 37.5 (≈ 192 µM) | 75 (≈ 383 µM) | 13 | 13 | 12 | 13 | 17 | 14 | 37.5 (≈ 192 µM) | – | –
COC(=O)/C=C\c1cc(C)cnc1Cl | 37.5 (≈ 177 µM) | 8.12 (≈ 38.4 µM) | 37.5 (≈ 177 µM) | 11 | 11 | 10 | 14 | 13 | 17 | 37.5 (≈ 177 µM) | – | –
CC(=O)/C=C\c1cc(C)cnc1Cl | 37.5 (≈ 192 µM) | 75 (≈ 383 µM) | 37.5 (≈ 192 µM) | 9 | 13 | 11 | 14 | 11 | 16 | 37.5 (≈ 192 µM) | – | –
C[C@@H]1[C@H](O)[C@@H](C)/C=C/C=C/C=C/C=C/C=C/C=C/C=C/[C@H](O[C@@H]2O[C@H](C)[C@@H](O)[C@H](N)[C@@H]2O)C[C@@H]2O[C@](O)(C[C@@H](O)C[C@@H](O)[C@H](O)CC[C@@H](O)C[C@@H](O)CC(=O)O[C@H]1C)C[C@H](O)[C@H]2C(=O)O [AMPHOTERICIN B] | – | – | – | 23.5 | – | 23 | 26 | – | – | – | – | 22
CC1(C)S[C@@H]2[C@H](NC(=O)Cc3ccccc3)C(=O)N2[C@H]1C(=O)O [PENICILLIN G] | 12.5 (≈ 37.4 µM) | 1.56 (≈ 4.67 µM) | 12.5 (≈ 37.4 µM) | – | – | – | – | – | – | 1.56 (≈ 4.67 µM) | – | –
CN[C@@H]1[C@H](O[C@H]2[C@H](O[C@H]3[C@H](O)[C@@H](O)[C@H](N=C(N)N)[C@@H](O)[C@@H]3N=C(N)N)O[C@@H](C)[C@]2(O)C=O)O[C@@H](CO)[C@H](O)[C@H]1O [STREPTOMYCIN] | 1.56 (≈ 2.69 µM) | 6.25 (≈ 10.7 µM) | 3.12 (≈ 5.37 µM) | – | – | – | – | – | – | 6.25 (≈ 10.7 µM) | – | –
